Key:
Assay type in all cases: cell-based, human
DUX4-fl mRNA = assay: DUX4 / DUX4-fl mRNA expression by qPCR in FSHD myotubes
Method: In a 6 well plate, 450 μL Buffer RLT Plus was added. Lysate was homogenized by transfer the lysate to a gDNA Eliminator spin column placed in a 2 mL collection tube (supplied), centrifuged for 30 s at ≥8000×g (≥10,000 rpm) and discarded column while saving the flow-through. Then 250 μL of Ethanol (35% final) was added to the flow-through, and mixed well by pipetting, not centrifuged. Then samples were transferred, including any precipitate that may have formed, to an RNeasy MinElute spin column placed in a 2 mL collection tube (supplied). Then centrifuged for 15 s at ≥8000×g. Flow-through was discarded or collected for Protein precipitation. 700 μL Buffer RW1 to the RNeasy MinElute spin column was added then centrifuge for 15 s at ≥8000×g. and discard the flow-through. DNAse treatment was performed by gently mixing 10 μL DNAseI with 70 μL of Buffer RDD and added directly to the column, incubated at room temperature for 20 min. Then, 700 μL Buffer RW1 (per manufactures specification) to the RNeasy MinElute spin column, centrifuged for 15 s at >8000×g. and the flow-through discarded. 500 μL Buffer RPE was added to the RNeasy MinElute spin column centrifuged for 15 s at ≥8000×g and discarded the flow-through. 500 μL of 80% ethanol was added to the RNeasy MinElute spin column, centrifuged for 2 min at ≥8000×g to wash the spin column membrane and the collection tube was discarded with the flow-through. The RNeasy MinElute spin column was placed in a new 2 mL collection tube (supplied) centrifuged at full speed for 5 min to dry the membrane and the collection tube was discarded with the flow through. RNeasy MinElute spin column was placed in a new 1.5 mL collection tube (supplied). 14 μL RNase-free water was added directly to the center of the spin column membrane, and centrifuged for 1 min at full speed to elute the RNA. You should end up with about 12 μL of eluted RNA.
cDNA preparation. […] 10 seconds then read plate on QuantStudio7 as per manufactures instruction (Thermo). […]

FSHD myotubes = assay: Myotube formation / fusion (MHC and DAPI staining); settings: 10, 100, and 1000 nM; FSHD myotubes
Method: On day 0, change to differentiation media. Remove plates from the incubator and aspirate the growth medium, Wash once with PBS, 100 μL for 96-wells and 1 mL for a 6-well plate, Add 100 μL or 2 mL of differentiation medium per well, 96- or 6-well respectively. Add antisense oligonucleotides or drug at the desire concentration and put back in the incubator. Fusion should start within day 1-2. Incubate for 3-4 days.
Briefly, cells were fixed in 4% paraformaldehyde and […] for 10 min at room temperature. Cells were permeabilized with PBST (1×PBS solution with 0.1% Triton X-100) before blocking with 10% Normal Donkey Serum or 3% BSA (NDS) in PBST. […] DUX4 was detected by immunocytochemistry using the E5-5 antibody in differentiated FSHD myotubes. Activated Caspase-3 was detected cell signaling antibody that we're using for ICC, Asp175 (https://www.cellsignal.com/products/primary-antibodies/cleaved-caspase-3-asp175-antibody/9661).
Immortalized FHSD myotubes were differentiated and treated with DMSO vehicle control or FTX-1821 at concentrations of 1 μM, 0.33 μM, 0.11 μM or 0.037 μM. […] The nuclei in myotubes were quantified according to […] staining (FIG. 8B).

[1] = system: active Caspase-3 in FSHD myotubes; assay: Apoptosis by active Caspase-3 in FSHD myotubes; settings: FSHD1 and FSHD2 lines; vs healthy control line CTRL-FTCE-014
Method: Briefly, cells were fixed in 4% paraformaldehyde and […] for 10 min at room temperature. Cells were permeabilized with PBST (1×PBS solution with 0.1% Triton X-100) before blocking with 10% Normal Donkey Serum or 3% BSA (NDS) in PBST. Cells were then incubated with appropriately diluted primary antibodies in PBST with 5% NDS for 1 hours at room temperature or 12 hours at 4° C., washed with PB ST for 3 times at room temperature and then incubated with desired secondary antibodies in TBST with 5% NDS and DAPI to counter stain the nuclei. DUX4 was detected by immunocytochemistry using the E5-5 antibody in differentiated FSHD myotubes. Activated Caspase-3 was detected cell signaling antibody that we're using for ICC, Asp175 (https://www.cellsignal.com/products/primary-antibodies/cleaved-caspase-3-asp175-antibody/9661).
Apoptosis was measured by active Caspase-3 levels in FSHD myotubes in vitro as described in Materials and Methods. Apoptosis was detected in a sporadic manner in a subset of myotubes in culture as shown by the white circles and magnified region in FIG. 9A. Active Caspase-3 signal was quantified in FSHD myotubes that had been treated with FTX-1821 at different concentrations (FIG. 9B). […] No change in active Caspase-3 signal was observed following DMSO treatment.

Cn1c(=O)c(Oc2ccc(F)cc2F)cc2cnc(NC(CCO)CCO)nc21 [Pamapimod, 6-(2,4-difluorophenoxy)-2-((1,5-dihydroxypentan-3-yl)amino)-8-methylpyrido[2,3-d]pyrimidin-7(8H)-one]
DUX4-fl mRNA levels normalized to POLR2A mRNA (DUX4-fl mRNA; 10, 100, and 1000 nM, FSHD myotubes, compared to DMSO): dose-dependently reduced | differentiation into myotubes (FSHD myotubes): without impacting | apoptosis (active caspase-3) [1]: reduction

FTX-2: DUX4 sequence-directed antisense oligonucleotide purchased from Exiqon, CAGCGTCGGAAGGTGG (SEQ ID NO: 1) (listed as DNA, chemistry not given here)
DUX4 expression (DUX4-fl mRNA; 1 μM ASO, FSHD myotubes vs DMSO): reduced amounts | DUX4 expression (DUX4-fl mRNA; different dilutions of the ASO, FSHD myotubes): dose dependent reduction
